According to paper PMC6486608, “A cell-penetrating peptide blocks Toll-like receptor-mediated downstream signaling and ameliorates autoimmune and inflammatory diseases in mice” (Experimental & Molecular Medicine, 2019):
Ends that are not written are not given here.

What was measured:
[1] = system: TLR4 (HEK-Blue hTLR4 cells); assay: SEAP activity (NF-κB), HEK-Blue hTLR4, LPS; assay type: cell-based; settings: n ≥ 3; for LPS-induced NF-κB activity (SEAP), peptides in the absence of CPP: not conjugated with CPP
Method: (§1) HEK-Blue-hTLR4 cells were seeded at a density of 2 × 10^5 cells/well and grown overnight in 24-well plates (BD Biosciences). The next day, the supernatant was removed, and the medium was replaced with fresh medium. Aliquots of supernatants (200 µl) from the treated cells were transferred to microcentrifuge tubes and heated for 10 min at 65 °C on a heating block (FINEPCR Co., Seoul, Korea). The supernatants were then transferred into new 96-well plates (BD Biosciences), and SEAP production was quantified using the HEK-Blue detection kit (InvivoGen). HEK-Blue IL-1R cells were seeded at a density of 2 × 10^5 cells/well and grown in 24-well plates (BD Biosciences) overnight, and SEAP production was measured by means of QUANTI-Blue (InvivoGen). Absorbance was measured on a microplate reader (spectrophotometry system; Molecular Devices Inc., Silicon Valley, CA, USA) or a Cytation 5 Cell Imaging Multi-Mode Reader (Bio-Tek Instruments, Winooski, VT, USA) at 620 nm.
The TLR4-mediated response to LPS leads to a direct interaction between the TIR domains of TIRAP and MyD88, resulting in the subsequent activation of the MyD88-dependent downstream cascade. On the other hand, LPS-induced activation of TLR4 can cause the interaction between the TIR domains of TRAM and TRIF, which thereafter initiates MyD88-independent downstream signaling. Multiple peptides were designed from the TIR domain of TIRAP to possibly target the TIR domain of TLR4. […] The inhibitory effects of the peptides (TIP1 and TIP2) in the absence of CPP were evaluated by measuring the SEAP activity in HEK-Blue hTLR4 cells. […] To evaluate the specific binding of TIP1 to TLRs, we measured the NF-κB activity and protein expression of NF-κB and MAPKs by the SEAP activity assay and western blotting in HEK-Blue IL-1R cells. […]

[2] = system: TLR signaling (RAW 264.7 cells); assay: TNF-α ELISA, RAW 264.7, peptides not conjugated with CPP; assay type: cell-based, mouse; settings: TIP1 without CPP 12.5, 25, and 50 µM (Fig. 2l); Poly(I:C) 24 h (Supplementary Fig. 1c)
Method: RAW 264.7, THP1, and mBMDM cells were seeded at a density of 2 × 10^5 cells/well in 96-well plates (BD Biosciences) or at 5 × 10^5 cells/well in 24-well plates (BD Biosciences) and were grown overnight. After 24 h of treatment, IFN-β secretion was measured by means of the LEGEND MAX Mouse IFN-β precoated ELISA Kit (BioLegend), IL-6 secretion was assessed by a Mouse IL-6 ELISA MAX Deluxe (BioLegend) or Mouse IL-6 Platinum ELISA (eBioscience), TNF-α production was assessed using the Mouse TNF alpha ELISA Ready-SET-Go! kit (eBioscience), and the IL-1β cytokine level was measured with the Mouse or Human IL-1β ELISA Ready-SET-Go! kit (eBioscience). hBMNCs were seeded at a density of 4 × 10^4/well in 96-well plates (BD Biosciences) and then grown overnight. After 24 h of treatment, the secretion levels of IL-6 and TNF-α were assessed using Human IL-6 ELISA MAX Deluxe (BioLegend) and Human TNF alpha ELISA MAX Deluxe (BioLegend), respectively. The plates were then analyzed on a microplate spectrophotometer system (Molecular Devices) at the appropriate wavelength.
Fig. 2 Inhibitory effects of TIP1 on TLR signaling pathways. a Cell viability was measured by the MTT assay upon the treatment of RAW 264.7 cells with various concentrations of TIP1 (12.5, 25, or 50 µM) for 24 h. […] The secretion of IFN-β was measured by an ELISA. q hPBMCs were treated with TIP1 in the presence or absence of LPS. […]

[3] = system: IL-1R (HEK-Blue IL-1R cells); assay: SEAP activity (NF-κB), HEK-Blue IL-1R, IL-1β; assay type: cell-based; settings: peptide 1 h before IL-1β (300 pg/ml), 24 h; n ≥ 3
Method: as §1
The TLR4-mediated response to LPS leads to a direct interaction between the TIR domains of TIRAP and MyD88, resulting in the subsequent activation of the MyD88-dependent downstream cascade. […] The inhibitory effects of the peptides (TIP1 and TIP2) in the absence of CPP were evaluated by measuring the SEAP activity in HEK-Blue hTLR4 cells. […]

[4] = target: T1, TLR4 TIR domain BB loop peptide (Homo sapiens); assay: SPR
T1 chain: RDFIPGVAIAA

With “SHCRVLLI [TIP1 without CPP, TIP1 peptide not conjugated with CPP]” the “LPS-induced NF-κB activity (SEAP), peptides in the absence of CPP” value [1] was “neither peptide significantly inhibited NF-κB activity” and the “inhibitory effect on TNF-α secretion after removal of CPP” value [2] was “loss of the inhibitory effect”.

“TIPLLS [TIP2 without CPP, TIP2 peptide not conjugated with CPP]” was tested, and the “LPS-induced NF-κB activity (SEAP), peptides in the absence of CPP” value [1] was “neither peptide significantly inhibited NF-κB activity” and the “inhibitory effect on TNF-α secretion after removal of CPP” value [2] was “loss of the inhibitory effect”.

In the case of “TIPLLS [TIP2, TIPLLS from the TIR domain of TIRAP, conjugated in tandem to a cell-penetrating peptide (…) at N terminus]”, the “IL-1β-induced NF-κB activity (SEAP)” value [3] is reported as “did not exert any significant inhibitory effects” and the “LPS-induced SEAP activity (NF-κB)” value ([1]; CPP-conjugated peptide, 12.5 to 50 μM, peptide 1 h before LPS, 24 h) is reported as “did not hinder LPS-induced NF-κB activity”.

For RQIKIWFQNRRMKWKKSHCRVLLI (also: biotinylated and immobilized) [TIP1 (TIRAP TIR-derived decoy peptide with N-terminal antennapedia CPP)], the Kd [4] was 40.2 µM.
